{"source": "patent US20250051264A1", "about": "“CANNABIDIOL DERIVATIVE, PREPARATION METHOD THEREFOR AND APPLICATION THEREOF” (DEYI PHARMACEUTICAL LTD., priority 2021, published 2025)", "format_in_all_cases": "in vivo, C57/BL6 mice", "key": {"dopamine in striatum": {"tested_on": "dopamine in striatum", "assay": "Content of dopamine in brain striatum by the kit method (ELISA) in the MPTP mouse model of Parkinson's disease", "method": "(§1) (2) MPTP (25 mg/kg) was intraperitoneally injected once a day for 7 consecutive days. The blank group was left untreated.\n(§2) (3) After modeling, administration was started. […] The intragastric administration was performed once a day for 14 consecutive days.\nAfter the mice were sacrificed quickly, the brains of the mice were taken and the cerebral palliums (CPs) of the mice were isolated. After exposing the brain striatum of the mice, the striatum was weighed and homogenized after adding PBS according to a proportion. The supernatant was isolated and detected for the content of dopamine in the brain striatum.\n(1) Standard curve plotting: a microplate was taken, and reagents were added according to the table below.\n(2) According to the number of samples, a proper amount of BCA working solution was prepared by uniformly mixing BCA reagent A and reagent B according to a volume ratio of 50:1.\n(3) 160 μL of BCA working solution was added to each well.\n(4) The microplate was shaken on a shaker for 30 s, left to stand at 37° C. for 30 min, and subsequently measured for absorbance at 562 nm. A standard curve was plotted with the absorbance value as an abscissa and the protein concentration (μg/μL) as an ordinate.\n(5) 2 μL of test protein and 18 μL of PBS (10-fold dilution) were added to the microplate, 160 μL of BCA working solution was added, and the microplate was shaken on a shaker for 30 s, left to stand at 37° C. for 30 min, and subsequently measured for the absorbance at 562 nm.\n(7) The experimental procedures and methods for the determination of dopamine in mice were referred to the kit instructions."}, "[1]": {"tested_on": "model of Parkinson's disease", "assay": "Behavioral balance beam score in the MPTP mouse model of Parkinson's disease", "settings": "for balance beam score after treatment: after 14 days intragastric treatment, model group 4-5 points; for Behavioral balance beam score, After treatment: after intragastric administration once a day for 14 days (compound 3 100 mg/kg; amantadine 40 mg/kg), model group 4.50 ± 0.53; for Behavioral balance beam score, After treatment / Behavioral balance beam score, After modeling: scale 0-5; for balance beam score as compared to the model group: after treatment, P≤0.05; for Behavioral balance beam score, After modeling: baseline 7 days after MPTP 25 mg/kg i.p. once daily, before treatment, mean ± SD, 8 mice per group", "method": "C57/BL6 mice, SPF grade, weighing 18-20 g, aged 6-8 weeks, male, purchased from Shanghai Slac Laboratory Animal Co., Ltd. Feeding environment: the temperature was kept at 22±1° C., and the humidity was kept at 65%-70%, in a 12/12 hour light/dark illumination cycle, with free access to water.\n(1) 32 SPF-grade C57 mice aged 6-8 weeks were purchased and acclimatized for one week, and subsequently the modeling was started.\nas §1, §2\n(4) Behavioral test was first performed by balance beam test scoring.\nA beam of 80 cm long and 2.5 cm wide was horizontally fixed at a height of 10 cm from the table top, and subsequently, the animals were allowed to walk on the beam.\nThe scoring scale was as follows: being able to jump on the balance beam and to walk freely without falling down: 0 points; being able to jump on the balance beam, but having a probability of tumbling down of less than 50% when walking on the balance beam: 1 point; being able to jump on the balance beam, but having a probability of tumbling down of greater than 50% when walking on the balance beam: 2 points; being able to jump on the balancing beam with the help of the normal side of the body, but failing to get help from the hind limb on the paralyzed side to move forward: 3 points; being unable to walk on the balance beam, but being able to sit on the beam: 4 points; falling off quickly when being placed on the beam: 5 points."}, "[2]": {"tested_on": "tyrosine hydroxylase (TH) cells in substantia nigra (SubN)", "assay": "Tyrosine hydroxylase (TH) cells in substantia nigra (SubN) by immunohistochemistry in the MPTP mouse model of Parkinson's disease", "settings": "for positive rate of TH cells in substantia nigra as compared to the model group: after treatment; for TH cell positive rate: substantia nigra, after 14 days intragastric treatment (compound 3 100 mg/kg; amantadine 40 mg/kg), blank 34.27 ± 5.08, model 12.74 ± 1.71", "method": "as §1, §2\nThe tissue should be cut using sharp knives and scissors. When cutting a tissue mass, the tissue was cut by pulling backwards from the root of the knife. […] The prepared tissue mass was fixed in 10% formalin for 48 h.\nThe fixed tissue was washed with running water to remove residual fixing liquid and impurities. The tissue mass was dehydrated in stages with different concentrations of ethanol (50%, 70%, 85%, 95%, up to pure alcohol (absolute ethanol)), each stage for 2 h. Dehydration must be performed in a capped flask to prevent high concentrations of ethanol from absorbing moisture in the air, resulting in reduced concentrations and incomplete dehydration. The material to be preserved can remain in 70% ethanol when being dehydrated with it. For long-term preservation, an equivalent amount of glycerol can be added.\nThe tissue mass was placed into a mixed solution of pure ethanol and xylene in an equivalent volume and left to stand for 2 h, subsequently placed into pure xylene and left to stand for two hours, and placed into pure xylene and left to stand for another two hours. After transparentizing, the effect of the previous dehydration of the material can be shown. If the dehydration is complete, the tissue is in a transparent state, and if there is a white cloud-shaped substance in the tissue, it means that the dehydration is incomplete and must be reworked, but the effect of rework is often not good. When xylene is used for transparentizing, it should be prevented from volatilizing and absorbing moisture in the air, and it should be kept in an anhydrous state.\nThe paraffin immersion must be performed in a thermostat. The tissue mass material was first immersed in a mixed solution of molten paraffin and xylene in equal volume for 1-2 h and subsequently immersed in 2 parts of molten paraffin solutions for 3 h each.\nEmbedding is the encapsulation of the paraffin-impregnated tissue mass with paraffin. Specifically, a paper box was first prepared, molten paraffin was added to the box, a tissue mass was quickly clamped by using a pair of pre-heated tweezers, and placed flat at the bottom of the paper box with a cut surface facing downwards. Subsequently, the paper box was slightly lifted up and placed flat in cold water, immediately pressed into the water after the paraffin on the surface was solidified for quickly cooling and solidifying the paraffin, and taken out after 30 min.\nThe paraffin block was placed in a refrigerator at −20° C. for at least 30 min before slicing to increase hardness. […]"}}, "data": [{"smiles": "C=C(C)[C@@H]1CCC(C)=C[C@H]1c1c(OC(=O)[C@@H](N)CCCCN)cc(CCCCC)cc1OC(=O)[C@@H](N)CCCCN", "note": "[compound 3]", "values": [{"measurement": "DA content of dopamine in striatum after treatment", "setting": "dopamine in striatum; after 14 days intragastric treatment (compound 3 100 mg/kg; amantadine 40 mg/kg), blank 0.71 ± 0.16, model 0.30 ± 0.07", "result": "0.45 ± 0.10", "unit": "ng/mg"}, {"measurement": "dopamine content as compared to the model group", "setting": "dopamine in striatum; after treatment, P≤0.01", "result": "increase"}, {"measurement": "content of dopamine compared with the blank group", "setting": "dopamine in striatum; after treatment, P≤0.05", "result": "significant decrease"}, {"measurement": "balance beam score after treatment", "setting": "[1]", "result": "3-4 points"}, {"measurement": "Behavioral balance beam score, After treatment", "setting": "[1]", "result": "3.50 ± 1.07"}, {"measurement": "balance beam score as compared to the model group", "setting": "[1]", "result": "significant descending trend"}, {"measurement": "Behavioral balance beam score, After modeling", "setting": "[1]", "result": "4.38 ± 0.52"}, {"measurement": "positive rate of TH cells in substantia nigra as compared to the model group", "setting": "[2]", "result": "increase"}, {"measurement": "TH cell positive rate", "setting": "[2]", "result": "14.59 ± 2.60", "unit": "%"}]}, {"smiles": "NC12CC3CC(CC(C3)C1)C2", "note": "[Positive drug, amantadine, reference compound]", "values": [{"measurement": "balance beam score after treatment", "setting": "[1]", "result": "2-3 points"}, {"measurement": "Behavioral balance beam score, After treatment", "setting": "[1]", "result": "2.13 ± 0.83"}, {"measurement": "balance beam score as compared to the model group", "setting": "[1]", "result": "significant descending trend"}, {"measurement": "Behavioral balance beam score, After modeling", "setting": "[1]", "result": "4.75 ± 0.46"}, {"measurement": "positive rate of TH cells in substantia nigra as compared to the model group", "setting": "[2]", "result": "significant increase"}, {"measurement": "TH cell positive rate", "setting": "[2]", "result": "20.82 ± 5.77", "unit": "%"}]}]}
